Patent US20240182445A1 (ONO PHARMACEUTICAL CO., LTD., priority 2019, published 2024)

Target: T1, human TREK-1 (Homo sapiens, UniProt O95069)
T1 construct: expressed in transfected cells
T1 sequence (O95069 1-426): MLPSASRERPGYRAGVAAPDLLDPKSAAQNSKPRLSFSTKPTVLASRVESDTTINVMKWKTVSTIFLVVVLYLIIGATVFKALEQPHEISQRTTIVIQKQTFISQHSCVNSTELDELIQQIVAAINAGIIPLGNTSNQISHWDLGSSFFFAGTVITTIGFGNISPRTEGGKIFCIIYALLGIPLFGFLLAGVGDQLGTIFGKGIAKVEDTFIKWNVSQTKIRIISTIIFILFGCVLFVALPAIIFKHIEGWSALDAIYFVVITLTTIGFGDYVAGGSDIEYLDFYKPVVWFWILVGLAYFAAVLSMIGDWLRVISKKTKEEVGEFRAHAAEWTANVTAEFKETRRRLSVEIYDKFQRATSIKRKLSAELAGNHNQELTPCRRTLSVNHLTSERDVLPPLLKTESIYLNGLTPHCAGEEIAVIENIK
Assay: TREK-1 Thallium (Tl+) flux assay, Method 1
Type: cell-based
Settings: TREK-1 Thallium (Tl+) flux assay
Procedure, shortened: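 CHO-K1 cells stably expressing human TREK-1, loaded with Thallos dye, received compound or 0.3% DMSO vehicle for 10 min before thallium stimulus buffer. ΔRatio is fluorescence at 25 s after thallium addition over mean pre-addition fluorescence; % inhibition calculated from it.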

[1] = values without footnote *12 are Method 1
[2] = no *^12 (Method 2) mark on these rows

Compound | IC50 [1] | IC50 [2]
CC(=O)N1CCC(Cn2ncc(Cl)c2C(=O)Nc2ncc(C#Cc3ccccc3)cc2F)C(F)(F)C1 (stereo not shown) [Compound 192, 1-((1-acetyl-3,3-difluoropiperidin-4-yl)methyl)-4-chloro-N-(3-fluoro-5-(phenylethynyl)pyridin-2-yl)-1H-pyrazole-5-carboxamide] | 290 nM | –
CC(=O)N[C@H]1CC[C@H](n2ncc(Cl)c2C(=O)Nc2ncc(C#Cc3ccc(F)cc3)cc2C)CC1 [Compound 193, 1-(trans-4-acetamidocyclohexyl)-4-chloro-N-(5-((4-fluorophenyl)ethynyl)-3-methylpyridin-2-yl)-1H-pyrazole-5-carboxamide] | 290 nM | –
Cc1cc(C#Cc2ccccc2)cc(F)c1NC(=O)c1c(Cl)cnn1C1CC(C#N)C1 (stereo not shown) [Compound 194, 4-chloro-1-(3-cyanocyclobutyl)-N-(2-fluoro-6-methyl-4-(phenylethynyl)phenyl)-1H-pyrazole-5-carboxamide] | 300 nM | –
CC(=O)N1C[C@H]2C[C@H](n3ncc(Cl)c3C(=O)Nc3ncc(C#Cc4cccc(F)c4)cc3C)C[C@H]2C1 [Compound 195, 1-[(3aR,5s,6aS)-2-acetyloctahydrocyclopenta[c]pyrrol-5-yl]-4-chloro-N-{5-[(3-fluorophenyl)ethynyl]-3-methylpyridin-2-yl}-1H-pyrazole-5-carboxamide] | – | 300 nM
CC(=O)N1CCC(CCn2ncc(Cl)c2C(=O)Nc2ncc(C#Cc3ccccc3F)cc2C)CC1 [Compound 196, 1-(2-(1-acetylpiperidin-4-yl)ethyl)-4-chloro-N-(5-((2-fluorophenyl)ethynyl)-3-methylpyridin-2-yl)-1H-pyrazole-5-carboxamide] | – | 300 nM
Cc1cc(C#Cc2ccc(F)cc2)cnc1NC(=O)c1c(Cl)cnn1[C@H]1C[C@H](NC(=O)C2CC2)C1 [Compound 198, 4-chloro-1-(trans-3-(cyclopropanecarboxamido)cyclobutyl)-N-(5-((4-fluorophenyl)ethynyl)-3-methylpyridin-2-yl)-1H-pyrazole-5-carboxamide] | – | 300 nM
O=C(Nc1c(F)cc(C#Cc2ccccc2)cc1F)c1c(Cl)cnn1[C@H]1CCOC1 [Compound 199, (S)-4-chloro-N-(2,6-difluoro-4-(phenylethnyl)phenyl)-1-(tetrahydrofuran-3-yl)-1H-pyrazole-5-carboxamide] | – | 310 nM
Cc1cc(C#Cc2ccccc2)cc(F)c1NC(=O)c1c(Cl)cnn1C[C@@H]1CCOC1 [Compound 200, (S)-4-chloro-N-(2-fluoro-6-methyl-4-(phenylethynyl)phenyl)-1-((tetrahydrofuran-3-yl)methyl)-1H-pyrazole-5-carboxamide] | – | 310 nM
O=C(Nc1c(F)cc(C#Cc2ccccc2)cc1F)c1c(Cl)cnn1C1CCOCC1 [Compound 201, 4-chloro-N-(2,6-difluoro-4-(phenylethynyl)phenyl)-1-(tetrahydro-2H-pyran-4-yl)-1H-pyrazole-5-carboxamide] | – | 310 nM
CC(=O)N1CC[C@@H](n2ncc(Cl)c2C(=O)Nc2ncc(C#Cc3ccccc3)cc2C)C1 [Compound 202, (R)-1-(1-acetylpyrrolidin-3-yl)-4-chloro-N-(3-methyl-5-(phenylethynyl)pyridin-2-yl)-1H-pyrazole-5-carboxamide] | – | 310 nM
CC(=O)N1CC[C@@H](n2ncc(Cl)c2C(=O)Nc2ncc(C#Cc3ccccc3)cc2F)C1 [Compound 203, (R)-1-(1-acetylpyrrolidin-3-yl)-4-chloro-N-(3-fluoro-5-(phenylethynyl)pyridin-2-yl)-1H-pyrazole-5-carboxamide] | – | 310 nM
Cc1cc(C#Cc2cccs2)cnc1NC(=O)c1c(Cl)cnn1[C@H]1C[C@@H]2CN(C(=O)C3CC3)C[C@@H]2C1 [Compound 204, 4-chloro-1-[(3aR,5s,6aS)-2-(cyclopropanecarbonyl)octahydrocyclo-penta[c]pyrrol-5-yl]-N-{3-methyl-5-[(thiophen-2-yl)ethynyl]pyridin-2-yl}-1H-pyrazole-5-carboxamide] | – | 310 nM
Cc1cc(C#Cc2cccc(F)c2)cnc1NC(=O)c1c(Cl)cnn1C1CCN(C(=O)C(C)(C)C)CC1 [Compound 205, 4-chloro-N-(5-((3-fluorophenyl)ethynyl)-3-methylpyridin-2-yl)-1-(1-pivaloylpiperidin-4-yl)-1H-pyrazole-5-carboxamide] | – | 310 nM
O=C(Nc1ncc(C#Cc2cccs2)cc1F)c1c(Cl)cnn1CCC1CCN(C(=O)C2COCCO2)CC1 (stereo not shown) [Compound 206, 1-(2-(1-(1,4-dioxane-2-carbonyl)piperidin-4-yl)ethyl)-4-chloro-N-(3-fluoro-5-(thiophen-2-ylethynyl)pyridin-2-yl)-1H-pyrazole-5-carboxamide] | – | 310 nM
Cc1cc(C#Cc2ccccc2)cnc1NC(=O)c1c(Cl)cnn1[C@H]1C[C@@H](NC(=O)C(C)C)C1 [Compound 207, 4-chloro-1-(cis-3-isobutyramidocyclobutyl)-N-(3-methyl-5-(phenylethynyl)pyridin-2-yl)-1H-pyrazole-5-carboxamide] | – | 310 nM
CC(=O)N1CC[C@@H](Cn2ncc(Cl)c2C(=O)Nc2ncc(C#Cc3ccccc3)cc2C)[C@H](F)C1 [Compound 208, 1-(((3S,4S)-1-acetyl-3-fluoropiperidin-4-yl)methyl)-4-chloro-N-(3-methyl-5-(phenylethynyl)pyridin-2-yl)-1H-pyrazole-5-carboxamide] | – | 310 nM
Cc1cc(C#Cc2ccc(F)cc2)cnc1NC(=O)c1c(Cl)cnn1[C@H]1C[C@H](NC(=O)C(C)C)C1 [Compound 209, 4-chloro-N-(5-((4-fluorophenyl)ethynyl)-3-methylpyridin-2-yl)-1-(trans-3-isobutyramidocyclobutyl)-1H-pyrazole-5-carboxamide] | – | 310 nM
Cc1cc(C#Cc2ccccc2)cnc1NC(=O)c1c(Cl)cnn1C1CCOCC1 [Compound 210, 4-chloro-N-(3-methyl-5-(phenylethynyl)pyridin-2-yl)-1-(tetrahydro-2H-pyran-4-yl)-1H-pyrazole-5-carboxamide] | – | 320 nM
Cc1cc(C#Cc2ccccc2)cnc1NC(=O)c1c(Cl)cnn1C[C@H]1COCCO1 [Compound 211, (S)-1-((1,4-dioxan-2-yl)methyl)-4-chloro-N-(3-methyl-5-(phenylethynyl)pyridin-2-yl)-1H-pyrazole-5-carboxamide] | – | 320 nM
Cc1cc(C#Cc2ccccc2)cnc1NC(=O)c1c(Cl)cnn1C1CC2(C1)CN(C(=O)C(C)C)C2 [Compound 212, 4-chloro-1-(2-isobutyryl-2-azaspiro[3.3]heptan-6-yl)-N-(3-methyl-5-(phenylethynyl)pyridin-2-yl)-1H-pyrazole-5-carboxamide] | – | 330 nM
CC(C)(C)OC(=O)N[C@H]1C[C@H](n2ncc(Cl)c2C(=O)Nc2ncc(C#Cc3ccccc3)cc2F)C1 [Compound 214, tert-butyl (trans-3-(4-chloro-5-((3-fluoro-5-(phenylethynyl)pyridin-2-yl)carbamoyl)-1H-pyrazol-1-yl)cyclobutyl)carbamate] | – | 330 nM
CC(C)C(=O)N1CCC(Cn2ncc(Cl)c2C(=O)Nc2ncc(C#Cc3ccccc3)cc2F)C(F)(F)C1 (stereo not shown) [Compound 216, 4-chloro-1-((3,3-difluoro-1-isobutyrylpiperidin-4-yl)methyl)-N-(3-fluoro-5-(phenylethynyl)pyridin-2-yl)-1H-pyrazole-5-carboxamide] | – | 330 nM
